C[C@H](O)[C@@H](O)[C@@H](O)[C@H](O)C=O
solubility (mole fraction)
Conditions	in acetone	in ethanol	in isopropanol	in methanol	in water
288.15 K	0.00023	0.00032	0.00014	0.00216	0.0512
293.15 K	0.00025	0.00038	0.00024	0.00244	–
298.15 K	0.00028	0.00043	0.00032	0.00275	0.0979
303.15 K	0.00032	0.00057	0.00043	0.00307	0.129
308.15 K	0.00038	0.00071	0.00056	0.00345	0.174
